Assay results: patent US20230257715A1, “COMPOSITIONS AND METHODS FOR REGULATING ENTEROENDOCRINE CELL DIFFERENTIATION AND USES THEREOF” (The Children's Medical Center Corporation, priority 2020, published 2023)

Tested on: human duodenal enteroids
Experiment: Flow cytometry of CHGA+ cells from enteroids
Type: cell-based
Experimental: Organoids were incubated in Cell Recovery solution for 40-60 minutes at 4° C. to remove the Matrigel® and then centrifuged at 500×g for 5 minutes at 4° C. To achieve single cell suspension, organoids were then incubated in 500 μL of TrypLE™ Express (Thermo Fisher Scientific) at 37° C. for 30 minutes and broken up by repeated pipetting using a bent P1000 pipette tip. Each sample was then diluted in 800 μL of 20% FBS in Advanced DMEM/F12 and then centrifuged at 800×g for 5 minutes at 4° C. To mark dead cells, each sample was then incubated in DAPI (1:1000) diluted in 2% FBS/2 mM EDTA/calcium-free DMEM for 20 minutes at room temperature, then centrifuged at 800×g for 5 minutes at 4° C. and washed in 2% FBS/2 mM EDTA/DMEM. Cells were then incubated in 1% PFA for 15 minutes at room temperature, washed with 2% FBS/PBS and then permeabilized in 0.2% Tween 20 in 2% FBS/PBS for 15 minutes at 37° C. Following centrifugation, cells were resuspended in 0.1% Tween 20/2% FBS/2 mM EDTA in PBS with PE/Alexa Fluor 647-conjugated CHGA (BD Biosciences, 564563, 1:100) or PE/Alexa Fluor 647-conjugated mouse IgG1, K isotype, (BD Biosciences, 554680, 1:200) or with no antibody (the latter two acting as controls) for 30 minutes on ice. Cells were then washed in 0.1% Tween 20/2% FBS/2 mM EDTA in PBS, filtered through a 37-micron mesh, and then analyzed on a BD FACSAria II SORP flow cytometer. […]

CCn1cc(C(=O)O)c(=O)c2c(N)c(F)c(NC3CCCCC3)cc21 [AS, AS1842856]
number of CHGA+ cells relative to the number seen with G2D12 alone: ~50 times
